Assay results: patent publication US20100317688A1, “2-HETEROAROYLIMIDAZOL[1,2-a]PYRIDINE DERIVATIVES, PREPARATION AND THERAPEUTIC USE THEREOF” (SANOFI-AVENTIS, priority 2008, published 2010)

Target: T1, murine Nurr1 receptor (Mus musculus, UniProt Q06219)
T1 construct: a cell line (N2A) endogenously expressing the murine Nurr1 receptor; host or cells: Neuro-2A (N2A) mouse neuroblastoma cells stably transfected with 8NBRE-luciferase
Assay: In vitro activity on N2A cells (8NBRE-luciferase reporter)
Type: cell-based
Settings: N2A cell line endogenously expressing Nurr1, stably transfected with NBRE-luciferase; 24 hours incubation
Protocol: Evaluation of the In Vitro Activity on N2A Cells
The activity of the compounds according to the invention was evaluated on a cell line (N2A) endogenously expressing the murine Nurr1 receptor and stably transfected with the NOT binding response element (NBRE) coupled to the luciferase reporter gene. The EC50 values are between 0.01 and 1000 nM. The tests were performed according to the procedure described hereinbelow.
The cell line Neuro-2A is obtained from a standard commercial source (ATCC). The clone Neuro-2A was obtained from a spontaneous tumour originating from a strain of albino mice A by R. J Klebe et al. This line Neuro-2A is then stably transfected with 8NBRE-luciferase. The N2A-8NBRE cells are cultured to the point of confluence in 75 cm^2 culture flasks containing DMEM supplemented with 10% foetal calf serum, 4.5 g/L of glucose and 0.4 mg/ml of geneticin. After culturing for one week, the cells are recovered with 0.25% trypsin for 30 seconds and then resuspended in DMEM without phenol red, containing 4.5 g/L of glucose and 10% Hyclone defatted serum, and placed in white, transparent-based 96-well plates. The cells are deposited at a rate of 60 000 per well in 75 μL for 24 hours before adding the products. […] The plates are then measured in a microplate luminescence counter, after having been sealed with an adhesive film. […]

T1 sequence (Q06219 whole entry): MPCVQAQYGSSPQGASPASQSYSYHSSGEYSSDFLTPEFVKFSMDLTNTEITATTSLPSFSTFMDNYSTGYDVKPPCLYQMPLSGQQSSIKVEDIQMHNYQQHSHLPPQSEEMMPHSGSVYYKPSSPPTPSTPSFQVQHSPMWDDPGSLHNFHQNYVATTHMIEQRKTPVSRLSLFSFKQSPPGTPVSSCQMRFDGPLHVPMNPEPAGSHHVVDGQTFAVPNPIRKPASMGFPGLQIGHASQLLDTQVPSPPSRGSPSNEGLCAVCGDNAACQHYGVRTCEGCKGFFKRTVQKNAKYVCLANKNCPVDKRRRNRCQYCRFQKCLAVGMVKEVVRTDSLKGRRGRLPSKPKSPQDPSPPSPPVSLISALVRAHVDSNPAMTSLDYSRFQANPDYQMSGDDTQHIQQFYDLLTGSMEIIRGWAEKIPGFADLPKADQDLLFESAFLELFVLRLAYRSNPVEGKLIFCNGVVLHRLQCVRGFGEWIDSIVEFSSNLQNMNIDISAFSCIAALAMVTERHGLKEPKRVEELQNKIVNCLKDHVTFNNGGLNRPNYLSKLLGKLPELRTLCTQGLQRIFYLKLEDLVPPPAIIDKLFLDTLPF

## O=C(c1cn2cc(Cl)ccc2n1)c1cccs1 [Example 4, (6-Chloroimidazo[1,2-a]pyridin-2-yl)(thien-2-yl)methanone]
  EC50: 4.7 nM
